Assay results reported in patent US8759333B2, “Di-azetidinyl diamide as monoacylglycerol lipase inhibitors” (Janssen Pharmaceutica, NV, priority 2010, dated 2014).

Columns and labels:
MGL = target: T1, MGL (Rattus norvegicus, UniProt Q8R431); experiment: 2-AG Accumulation Assay in rat brain homogenate; assay type: biochemical; settings: percent of vehicle; for activity at 1 µM: compound @1 µM, read-out: Rat Brain 2AG % VehCntrl (%) @1 µM; for activity at 10 µM: compound @10 µM, read-out: Rat Brain 2AG % VehCntrl (%) @10 µM
T1 construct: one g rat brain was homogenized using a Polytron homogenizer; from tissue; host or cells: rat brain homogenate
T1 sequence (Q8R431 1-303): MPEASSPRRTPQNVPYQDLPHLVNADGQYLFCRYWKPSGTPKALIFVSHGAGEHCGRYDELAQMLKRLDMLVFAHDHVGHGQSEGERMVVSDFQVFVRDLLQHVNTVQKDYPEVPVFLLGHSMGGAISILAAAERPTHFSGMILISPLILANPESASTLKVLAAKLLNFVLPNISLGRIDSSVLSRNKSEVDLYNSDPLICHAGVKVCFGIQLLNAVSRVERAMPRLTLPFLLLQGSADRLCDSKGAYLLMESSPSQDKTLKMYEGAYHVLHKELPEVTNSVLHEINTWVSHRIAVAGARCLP

mutant MGL = target: T2, mutant MGL (Homo sapiens, UniProt Q99685, L169S/L176S); experiment: MGL ThermoFluor Assay - Mutant; assay type: binding; settings: 0.07 mg/ml mutant MGL, 100 μM ANS, pH 7.0
T2 construct: purified mutant MGL (mut-MGLL 11-313 L179S L186S)
T2 sequence (Q99685 1-303 L169S/L176S): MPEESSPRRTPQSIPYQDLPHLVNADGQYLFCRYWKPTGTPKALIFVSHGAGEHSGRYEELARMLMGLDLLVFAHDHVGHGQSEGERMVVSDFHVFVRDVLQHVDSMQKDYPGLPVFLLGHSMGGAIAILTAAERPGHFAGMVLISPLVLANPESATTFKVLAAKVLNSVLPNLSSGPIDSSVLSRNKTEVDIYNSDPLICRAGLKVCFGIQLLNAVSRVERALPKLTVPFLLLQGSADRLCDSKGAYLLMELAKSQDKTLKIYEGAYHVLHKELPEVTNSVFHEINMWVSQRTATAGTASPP
Description: The ThermoFluor (TF) assay is a 384-well plate-based binding assay that measures thermal stability of proteins^1,2. The experiments were carried out using instruments available from Johnson & Johnson Pharmaceutical Research & Development, LLC. TF dye used in all experiments was 1,8-ANS (Invitrogen: A-47). Final TF assay conditions used for MGL studies were 0.07 mg/ml of mutant MGL, 100 μM ANS, 200 mM NaCl, 0.001% Tween-20 in 50 mM PIPES (pH=7.0).
Screening compound plates contained 100% DMSO compound solutions at a single concentration. […] Columns 12 and 24 were used as DMSO reference and contained no compound. […] Following compound dispension, protein and dye solutions were added to achieve the final assay volume of 3 μL.
Bar-coded assay plates were robotically loaded onto a thermostatically controlled PCR-type thermal block and then heated from 40 to 90° C. degrees at a ramp-rate of 1° C./min for all experiments. Fluorescence was measured by continuous illumination with UV light (Hamamatsu LC6), supplied via fiber optics and filtered through a band-pass filter (380-400 nm; >60D cutoff). Fluorescence emission of the entire 384-well plate was detected by measuring light intensity using a CCD camera (Sensys, Roper Scientific) filtered to detect 500±25 nm, resulting in simultaneous and independent readings of all 384 wells. A single image with 20-sec exposure time was collected at each temperature, and the sum of the pixel intensity in a given area of the assay plate was recorded vs temperature and fit to standard equations to yield the Tm^1. • 1.
The Kd values for certain compounds of Formula (I) were determined from a fit of the equation to the concentration-response plot of the fractional activity as a function of […]. For some experiments, quantitative NMR spectroscopy (qNMR) was used to measure concentration of the initial 100% DMSO compound solutions and, using the same fitting method, qKd values were determined.

[1] = target: T3, mutant MGL (mut-MGLL 11-313 L179S L186S) (Homo sapiens, UniProt Q99685, L169S/L176S); experiment: MGL Enzyme Activity Assay, purified mutant MGL, 4MU-B substrate; assay type: biochemical; settings: mutant MGL 5 nM, 4MU-B 10 μM, 37° C.; read-out: MGL mutant inh IC50
T3 construct: purified mutant MGL (mut-MGLL 11-313 L179S L186S)
T3 sequence (Q99685 1-303 L169S/L176S): T2 sequence (Q99685 1-303 L169S/L176S)
Description: All rate-based assays were performed in black 384-well polypropylene PCR microplates (Abgene) in a total volume of 30 μL. Substrate 4-methylumbelliferyl butyrate (4MU-B; Sigma) and either purified mutant MGL (mut-MGLL 11-313 L179S L186S) or purified wild type MGL (wt-MGLL 6H-11-313) were diluted separately into 20 mM PIPES buffer (pH=7.0), containing 150 mM NaCl and 0.001% Tween 20. Compounds of Formula (I), including Formulas I(a), I(b), and I(c), were pre-dispensed (50 nL) into the assay plate using a Cartesian Hummingbird prior to adding 4MU-B (25 μL of 1.2× solution to a final concentration of 10 μM) followed by enzyme (5 μL of a 6× solution to a final concentration of 5 nM) to initiate the reaction. Final compound concentrations ranged from 17 to 0.0003 μM. The fluorescence change due to 4MU-B cleavage was monitored with excitation and emission wavelengths of 335 and 440 nm, respectively, and a bandwidth of 10 nm (Safire^2, Tecan) at 37° C. for 5 min.
The IC50 values for the following compounds were determined using Microsoft Office Excel from a fit of the equation to the concentration-response plot of the fractional activity as a function of inhibitor concentration.

## O=C(NC1CN(C2CN(C(=O)c3ccc4c(ccn4S(=O)(=O)c4ccccc4)c3)C2)C1)c1nccs1 [Cpd 3, N-(1′-{[1-(Phenylsulfonyl)-1H-indol-5-yl]carbonyl}-1,3′-biazetidin-3-yl)-1,3-thiazole-2-carboxamide]
MGL
  activity at 1 µM: 271%
Mutant MGL
  Kd: 33.3 nM
[1]
  IC50: 6 nM

## O=C(NC1CN(C2CN(C(=O)c3cc4c(C(F)(F)F)cccc4s3)C2)C1)c1nccs1 [Cpd 8, N-(1′-{[4-(Trifluoromethyl)-1-benzothiophen-2-yl]carbonyl}-1,3′-biazetidin-3-yl)-1,3-thiazole-2-carboxamide]
MGL
  activity at 1 µM: 127%
Mutant MGL
  Kd: 128 nM
[1]
  IC50: 12 nM

## O=C(NC1CN(C2CN(C(=O)c3ccc4c(ccn4-c4ccc(F)cc4)c3)C2)C1)c1cscn1 [Cpd 11, N-(1′-{[1-(4-Fluorophenyl)-1H-indol-5-yl]carbonyl}-1,3′-biazetidin-3-yl)-1,3-thiazole-4-carboxamide]
MGL
  activity at 10 µM: 220%
Mutant MGL
  Kd: 44 nM
[1]
  IC50: 15 nM

## CS(=O)(=O)c1cccc(-c2ccc(C(=O)N3CC(N4CC(NC(=O)c5nccs5)C4)C3)cc2)c1 [Cpd 18, N-(1′-{[3′-(Methylsulfonyl)biphenyl-4-yl]carbonyl}-1,3′-biazetidin-3-yl)-1,3-thiazole-2-carboxamide]
MGL
  activity at 1 µM: 218%
Mutant MGL
  Kd: 215 nM
[1]
  IC50: 59 nM

## O=C(NC1CN(C2CN(C(=O)c3nc4cc(C(F)(F)F)ccc4s3)C2)C1)c1nccs1 [Cpd 47, N-(1′-{[5-(Trifluoromethyl)-1,3-benzothiazol-2-yl]carbonyl}-1,3′-biazetidin-3-yl)-1,3-thiazole-2-carboxamide]
Mutant MGL
  Kd: 2500 nM
[1]
  IC50: 4750 nM

## O=C(c1ccc2c(ccn2S(=O)(=O)c2ccccc2)c1)N1CC(N2CC(N3Cc4ccccc4C3=O)C2)C1 [Cpd 71, 2-(1′-{[1-(Phenylsulfonyl)-1H-indol-5-yl]carbonyl}-1,3′-biazetidin-3-yl)-2,3-dihydro-1H-isoindol-1-one]
MGL
  activity at 10 µM: 400%
Mutant MGL
  Kd: 50 nM
[1]
  IC50: 8 nM

## O=C(c1sc2cc(Br)ccc2c1Cl)N1CC(N2CC(N3Cc4ccccc4C3=O)C2)C1 [Cpd 75, 2-{1′-[(6-Bromo-3-chloro-1-benzothiophen-2-yl)carbonyl]-1,3′-biazetidin-3-yl}-2,3-dihydro-1H-isoindol-1-one]
Mutant MGL
  Kd: 7 nM
[1]
  IC50: 15 nM

## O=C(c1ccc2nc(-c3cccc(C(F)(F)F)c3)oc2c1)N1CC(N2CC(N3Cc4ccccc4C3=O)C2)C1 [Cpd 78, 2-[1′-({2-[3-(Trifluoromethyl)phenyl]-1,3-benzoxazol-6-yl}carbonyl)-1,3′-biazetidin-3-yl]-2,3-dihydro-1H-isoindol-1-one]
Mutant MGL
  Kd: 40 nM
[1]
  IC50: 17 nM

## CS(=O)(=O)c1cccc(-c2ccc(C(=O)N3CC(N4CC(N5Cc6ccccc6C5=O)C4)C3)cc2)c1 [Cpd 80, 2-(1′-{[3′-(Methylsulfonyl)biphenyl-4-yl]carbonyl}-1,3′-biazetidin-3-yl)-2,3-dihydro-1H-isoindol-1-one]
MGL
  activity at 1 µM: 166%
Mutant MGL
  Kd: 192 nM
[1]
  IC50: 19 nM

## O=C(c1cc2ccc(C(F)(F)F)cc2s1)N1CC(N2CC(N3Cc4ccccc4C3=O)C2)C1 [Cpd 81, 2-(1′-{[6-(Trifluoromethyl)-1-benzothiophen-2-yl]carbonyl}-1,3′-biazetidin-3-yl)-2,3-dihydro-1H-isoindol-1-one]
MGL
  activity at 1 µM: 192%
  activity at 10 µM: 409%
Mutant MGL
  Kd: 16 nM
[1]
  IC50: 19 nM

## O=C(c1ccc2nc(-c3ccccc3)oc2c1)N1CC(N2CC(N3Cc4ccccc4C3=O)C2)C1 [Cpd 84, 2-{1′-[(2-Phenyl-1,3-benzoxazol-6-yl)carbonyl]-1,3′-biazetidin-3-yl}-2,3-dihydro-1H-isoindol-1-one]
MGL
  activity at 1 µM: 152%
  activity at 10 µM: 435%
Mutant MGL
  Kd: 60 nM
[1]
  IC50: 31 nM

## O=C(c1ccc2c(ccn2-c2ccccc2)c1)N1CC(N2CC(N3Cc4ccccc4C3=O)C2)C1 [Cpd 85, 2-{1′-[(1-Phenyl-1H-indol-5-yl)carbonyl]-1,3′-biazetidin-3-yl}-2,3-dihydro-1H-isoindol-1-one]
MGL
  activity at 10 µM: 693%
Mutant MGL
  Kd: 25 nM
[1]
  IC50: 36 nM

## O=C(c1cc2ccc(Br)cc2s1)N1CC(N2CC(N3Cc4ccccc4C3=O)C2)C1 [Cpd 87, 2-{1′-[(6-Bromo-1-benzothiophen-2-yl)carbonyl]-1,3′-biazetidin-3-yl}-2,3-dihydro-1H-isoindol-1-one]
MGL
  activity at 10 µM: 250%
Mutant MGL
  Kd: 40 nM
[1]
  IC50: 50 nM

## O=C(c1ccc(-c2ccccc2)cc1)N1CC(N2CC(N3Cc4ccccc4C3=O)C2)C1 [Cpd 92, 2-[1′-(Biphenyl-4-ylcarbonyl)-1,3′-biazetidin-3-yl]-2,3-dihydro-1H-isoindol-1-one]
Mutant MGL
  Kd: 100 nM
[1]
  IC50: 242 nM

## O=C(c1cc2cc(Br)ccc2s1)N1CC(N2CC(N3Cc4ccccc4C3=O)C2)C1 [Cpd 93, 2-{1′-[(5-Bromo-1-benzothiophen-2-yl)carbonyl]-1,3′-biazetidin-3-yl}-2,3-dihydro-1H-isoindol-1-one]
Mutant MGL
  Kd: 76.9 nM
[1]
  IC50: 360 nM

## O=C(c1ccc(Cc2ccccc2)cc1)N1CC(N2CC(N3Cc4ccccc4C3=O)C2)C1 [Cpd 94, 2-{1′-[(4-Benzylphenyl)carbonyl]-1,3′-biazetidin-3-yl}-2,3-dihydro-1H-isoindol-1-one]
Mutant MGL
  Kd: 91 nM
[1]
  IC50: 412 nM

## O=C(c1sc2cc(F)ccc2c1Cl)N1CC(N2CC(N3Cc4ccccc4C3=O)C2)C1 [Cpd 100, 2-{1′-[(3-Chloro-6-fluoro-1-benzothiophen-2-yl)carbonyl]-1,3′-biazetidin-3-yl}-2,3-dihydro-1H-isoindol-1-one]
MGL
  activity at 1 µM: 208%
Mutant MGL
  Kd: 47 nM
[1]
  IC50: < 5 nM
